Data from the NIST ThermoML archive (doi:10.1021/je400056z).

Test: xn = mol fraction of the nth substance listed
Conditions: Liquid, Vibrating tube method

CCCCCCC [heptane] + O=C=O
Conditions | mass density [kg/m3]
312.02 K, 10986 kPa, x2 = 0.9496 | 729.05
312.02 K, 12001 kPa, x2 = 0.9496 | 747.88
312.02 K, 13001 kPa, x2 = 0.9496 | 763.05
312.02 K, 13981 kPa, x2 = 0.9496 | 776.11
312.02 K, 15000 kPa, x2 = 0.9496 | 787.02
312.02 K, 16006 kPa, x2 = 0.9496 | 797.48
312.02 K, 16997 kPa, x2 = 0.9496 | 806.48
312.02 K, 18005 kPa, x2 = 0.9496 | 814.74
312.02 K, 19001 kPa, x2 = 0.9496 | 822.53
312.02 K, 19995 kPa, x2 = 0.9496 | 829.62
312.02 K, 20996 kPa, x2 = 0.9496 | 836.32
312.02 K, 22002 kPa, x2 = 0.9496 | 842.78
312.02 K, 23003 kPa, x2 = 0.9496 | 848.74
312.02 K, 24007 kPa, x2 = 0.9496 | 854.47
312.02 K, 24361 kPa, x2 = 0.9496 | 856.44
312.94 K, 5011 kPa, x2 = 0.3148 | 693.37
312.94 K, 6008 kPa, x2 = 0.3148 | 694.74
312.94 K, 7004 kPa, x2 = 0.3148 | 696.16
312.94 K, 8002 kPa, x2 = 0.3148 | 697.62
312.94 K, 8997 kPa, x2 = 0.3148 | 699.03
312.94 K, 9991 kPa, x2 = 0.3148 | 700.6
312.94 K, 11000 kPa, x2 = 0.3148 | 701.81
312.94 K, 12009 kPa, x2 = 0.3148 | 703.08
312.94 K, 13002 kPa, x2 = 0.3148 | 704.39
312.94 K, 13992 kPa, x2 = 0.3148 | 705.63
312.94 K, 15009 kPa, x2 = 0.3148 | 706.99
312.94 K, 16009 kPa, x2 = 0.3148 | 708.23
312.94 K, 16997 kPa, x2 = 0.3148 | 709.2
312.94 K, 18018 kPa, x2 = 0.3148 | 710.45
312.94 K, 19015 kPa, x2 = 0.3148 | 711.73
312.94 K, 20006 kPa, x2 = 0.3148 | 712.83
312.94 K, 21008 kPa, x2 = 0.3148 | 713.93
312.94 K, 22010 kPa, x2 = 0.3148 | 715.06
312.94 K, 23004 kPa, x2 = 0.3148 | 716.14
312.94 K, 24017 kPa, x2 = 0.3148 | 717.34
312.94 K, 24997 kPa, x2 = 0.3148 | 718.41
312.98 K, 7014 kPa, x2 = 0.7514 | 729.2
312.98 K, 8012 kPa, x2 = 0.7514 | 733.47
312.98 K, 8996 kPa, x2 = 0.7514 | 737.34
312.98 K, 10005 kPa, x2 = 0.7514 | 741.22
312.98 K, 10989 kPa, x2 = 0.7514 | 744.88
312.98 K, 12007 kPa, x2 = 0.7514 | 748.38
312.98 K, 12994 kPa, x2 = 0.7514 | 751.74
312.98 K, 14005 kPa, x2 = 0.7514 | 754.92
312.98 K, 14990 kPa, x2 = 0.7514 | 758
312.98 K, 16009 kPa, x2 = 0.7514 | 761.15
312.98 K, 17002 kPa, x2 = 0.7514 | 764.01
312.98 K, 17990 kPa, x2 = 0.7514 | 766.8
312.98 K, 19008 kPa, x2 = 0.7514 | 769.54
312.98 K, 20006 kPa, x2 = 0.7514 | 772.19
312.98 K, 21018 kPa, x2 = 0.7514 | 774.69
312.98 K, 21997 kPa, x2 = 0.7514 | 777.23
312.98 K, 23004 kPa, x2 = 0.7514 | 779.67
312.98 K, 23994 kPa, x2 = 0.7514 | 782.07
312.98 K, 24571 kPa, x2 = 0.7514 | 783.46
313.03 K, 5011 kPa, x2 = 0.5085 | 706.14
313.03 K, 6005 kPa, x2 = 0.5085 | 708.31
313.03 K, 7004 kPa, x2 = 0.5085 | 710.37
313.03 K, 8011 kPa, x2 = 0.5085 | 712.42
313.03 K, 8996 kPa, x2 = 0.5085 | 714.37
313.03 K, 10001 kPa, x2 = 0.5085 | 716.4
313.03 K, 11006 kPa, x2 = 0.5085 | 718.29
313.03 K, 11994 kPa, x2 = 0.5085 | 720.05
313.03 K, 13000 kPa, x2 = 0.5085 | 721.92
313.03 K, 14002 kPa, x2 = 0.5085 | 723.71
313.03 K, 15010 kPa, x2 = 0.5085 | 725.36
313.03 K, 16006 kPa, x2 = 0.5085 | 727.16
